Measurements from patent US20250255941A1 (priority 2021, published 2025).
Values joined by “and” are separate entries in the source; they are usually repeats but may differ in a detail not shown here. Equal values may be shown once.

Columns and labels:
prostaglandin F2a = format: cell-based; conditions: 5 μM
Keratinocytes = conditions: 5 μM

CS(=O)(=O)Nc1ccc([N+](=O)[O-])cc1OC1CCCCC1 [NS-398]
Absorbance value (405 nm), individual measurements (n=4) (prostaglandin F2a): 0.6170 and 0.6000 and 0.6110 and 0.6220
PGF2alpha (pg/mL), individual measurements (n=4) (prostaglandin F2a): 70.9 pg/mL and 86.8 pg/mL and 76.1 pg/mL and 66.8 pg/mL
PGF2alpha (pg/mL)/MTT, Mean (prostaglandin F2a): 86.3 (pg/mL)/MTT
PGF2alpha (pg/mL)/MTT, individual measurements (n=4) (prostaglandin F2a): 81.5 (pg/mL)/MTT and 101.6 (pg/mL)/MTT and 86.6 (pg/mL)/MTT and 75.4 (pg/mL)/MTT
prostaglandin F2a expression, % of control (prostaglandin F2a): 9.3%
Cytotoxicity test (MTT), % of control (Keratinocytes): 102.0%
Cytotoxicity test (MTT), Mean (Keratinocytes): 0.8720
